Results published in patent US8802849B2, “Tricyclic benzo[4,5]thieno-[2,3-d]pyrimidine-4-yl-amin derivatives, their salts, process for producing the compounds and their pharmaceutical use” (Vichem Chemie Kutató Kft., priority 2008, dated 2014).

Assays:
EGFR = EGFR (Homo sapiens, UniProt P00533); test: EGFR kinase assay (33P-ATP filter plate); format: biochemical; conditions: for inhibition at 10 µM: 10 μM compound, read-out: EGFR percent of inhibition
Experimental: (§1) General description of the kinase assays: the kinase activity was assayed in 96-well microtiter plates at a final compound concentration of 10 μM in a total volume of 50 μl. Compounds were dissolved in 100% DMSO to prepare a 10 mM stock solution and than diluted with buffer to reach a 10 μM (or the required) final concentration. The kinase concentration was used to yield 10% ATP turn over. The ATP concentration was used at the KmATP and 12.5 μCi/ml adenosine 5′[γ-33P]triphosphate. The substrate concentration was used at 5 fold excess over the Km for the substrate. The reaction was incubated for 1 hour at room temperature and stopped by addition of 10 μl 50 mM EDTA. The assay was transferred to a 96 well MAPH filter plate (Millipore). The radioactivity was counted on a Microbeta microplate counter.

AKT1/PKBa = AKT1/PKBa (Homo sapiens, UniProt P31749); test: AKT1/PKBa kinase assay; format: biochemical; conditions: 10 μM compound; read-out: AKT1/PKBa percent of inhibition
Experimental: as §1

Abl = Abl (Homo sapiens, UniProt P00519); test: Abl kinase assay; format: biochemical; conditions: 10 μM compound; read-out: Abl percent of inhibition
Experimental: as §1

CDK2/CycA = CDK2/CycA (Homo sapiens, UniProt P24941); test: CDK2/CycA kinase assay; format: biochemical; conditions: 10 μM compound; read-out: CDK2/CycA percent of inhibition
Experimental: as §1

CK1-alpha = CK1-alpha (Homo sapiens, UniProt P48729); test: CK1-alpha kinase assay; format: biochemical; conditions: 10 μM compound; read-out: CK1-alpha percent of inhibition
Experimental: as §1

GSK-3beta = GSK-3beta (Homo sapiens, UniProt P49841); test: GSK-3beta kinase assay; format: biochemical; conditions: 10 μM compound; read-out: GSK-3beta percent of inhibition
Experimental: as §1

IKK-beta = target: T1, IKK-beta (Homo sapiens, UniProt O14920); test: IKK-beta kinase assay; format: biochemical; conditions: 10 μM compound; read-out: IKK-beta percent of inhibition
T1 sequence (O14920 1-756): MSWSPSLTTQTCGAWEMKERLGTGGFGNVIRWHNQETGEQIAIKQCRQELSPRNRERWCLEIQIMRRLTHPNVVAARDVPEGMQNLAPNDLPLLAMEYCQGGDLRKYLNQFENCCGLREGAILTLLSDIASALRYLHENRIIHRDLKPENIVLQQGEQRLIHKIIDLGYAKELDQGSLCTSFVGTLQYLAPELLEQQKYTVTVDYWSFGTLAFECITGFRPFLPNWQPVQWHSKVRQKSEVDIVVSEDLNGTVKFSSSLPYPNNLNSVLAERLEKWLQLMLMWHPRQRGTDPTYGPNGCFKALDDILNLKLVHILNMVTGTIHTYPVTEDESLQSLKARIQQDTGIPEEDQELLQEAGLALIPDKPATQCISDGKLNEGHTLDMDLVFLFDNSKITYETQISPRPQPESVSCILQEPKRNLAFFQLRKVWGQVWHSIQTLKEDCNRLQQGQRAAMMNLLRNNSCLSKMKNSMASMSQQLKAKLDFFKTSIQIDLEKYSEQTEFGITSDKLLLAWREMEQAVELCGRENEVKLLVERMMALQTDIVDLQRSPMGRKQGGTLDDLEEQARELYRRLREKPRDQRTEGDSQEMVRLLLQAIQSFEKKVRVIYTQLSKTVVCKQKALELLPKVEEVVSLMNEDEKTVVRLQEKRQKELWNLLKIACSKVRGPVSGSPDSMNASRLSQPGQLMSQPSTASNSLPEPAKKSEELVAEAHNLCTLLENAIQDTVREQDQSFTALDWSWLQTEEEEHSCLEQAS
Experimental: as §1

InsR = InsR (Homo sapiens, UniProt P06213); test: InsR kinase assay; format: biochemical; conditions: 10 μM compound; read-out: InsR percent of inhibition
Experimental: as §1

Jnk1a1 = Jnk1a1 (Homo sapiens, UniProt P45983); test: Jnk1a1 kinase assay; format: biochemical; conditions: 10 μM compound; read-out: Jnk1a1 percent of inhibition
Experimental: as §1

Kit = Kit (Homo sapiens, UniProt P10721); test: Kit kinase assay; format: biochemical; conditions: 10 μM compound; read-out: Kit percent of inhibition
Experimental: as §1

MAPK-ERK1 = MAPK-ERK1 (Homo sapiens, UniProt P27361); test: MAPK-ERK1 kinase assay; format: biochemical; conditions: 10 μM compound; read-out: MAPK-ERK1 percent of inhibition
Experimental: as §1

PDGFR-beta = PDGFR-beta (Homo sapiens, UniProt P09619); test: PDGFR-beta kinase assay; format: biochemical; conditions: 10 μM compound; read-out: PDGFR-beta percent of inhibition
Experimental: as §1

ROCK2 = ROCK2 (Homo sapiens, UniProt O75116); test: ROCK2 kinase assay; format: biochemical; conditions: 10 μM compound; read-out: ROCK2 percent of inhibition
Experimental: as §1

RSK1 = RSK1 (Homo sapiens, UniProt Q15418); test: RSK1 kinase assay; format: biochemical; conditions: 10 μM compound; read-out: RSK1 percent of inhibition
Experimental: as §1

SRPK1 = SRPK1 (Homo sapiens, UniProt Q96SB4); test: SRPK1 kinase assay; format: biochemical; conditions: 10 μM compound; read-out: SRPK1 percent of inhibition
Experimental: as §1

c-Raf = c-Raf (Homo sapiens, UniProt P04049); test: c-Raf kinase assay; format: biochemical; conditions: 10 μM compound; read-out: c-Raf percent of inhibition
Experimental: as §1

c-Src = c-Src (Homo sapiens, UniProt P12931); test: c-Src kinase assay; format: biochemical; conditions: 10 μM compound; read-out: c-Src percent of inhibition
Experimental: as §1

cMet = cMet (Homo sapiens, UniProt P08581); test: cMet kinase assay; format: biochemical; conditions: 10 μM compound; read-out: cMet percent of inhibition
Experimental: as §1

P56Lck = P56Lck (Homo sapiens, UniProt P06239); test: P56Lck kinase assay; format: biochemical; conditions: 10 μM compound; read-out: P56Lck percent of inhibition
Experimental: as §1

P70S6K = P70S6K (Homo sapiens, UniProt P23443); test: P70S6K kinase assay; format: biochemical; conditions: 10 μM compound; read-out: P70S6K percent of inhibition
Experimental: as §1

c-Raf, sequence (P04049 whole entry, species assumed): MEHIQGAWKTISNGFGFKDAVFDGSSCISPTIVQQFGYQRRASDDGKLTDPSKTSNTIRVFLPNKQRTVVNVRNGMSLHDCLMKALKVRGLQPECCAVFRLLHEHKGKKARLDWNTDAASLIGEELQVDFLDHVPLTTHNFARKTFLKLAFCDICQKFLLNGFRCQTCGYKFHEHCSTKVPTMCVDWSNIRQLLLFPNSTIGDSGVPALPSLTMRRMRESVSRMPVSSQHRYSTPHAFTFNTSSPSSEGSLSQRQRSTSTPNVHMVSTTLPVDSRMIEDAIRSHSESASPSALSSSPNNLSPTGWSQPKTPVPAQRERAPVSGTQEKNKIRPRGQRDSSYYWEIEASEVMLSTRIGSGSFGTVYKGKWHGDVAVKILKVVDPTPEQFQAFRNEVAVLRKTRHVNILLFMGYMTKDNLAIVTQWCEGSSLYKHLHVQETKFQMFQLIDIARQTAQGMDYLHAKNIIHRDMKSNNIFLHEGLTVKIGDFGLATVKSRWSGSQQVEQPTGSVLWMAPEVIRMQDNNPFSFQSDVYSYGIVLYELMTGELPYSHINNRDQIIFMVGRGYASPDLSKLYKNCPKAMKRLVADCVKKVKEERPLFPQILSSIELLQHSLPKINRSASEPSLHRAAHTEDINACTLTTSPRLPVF
ROCK2, sequence (O75116 whole entry, species assumed): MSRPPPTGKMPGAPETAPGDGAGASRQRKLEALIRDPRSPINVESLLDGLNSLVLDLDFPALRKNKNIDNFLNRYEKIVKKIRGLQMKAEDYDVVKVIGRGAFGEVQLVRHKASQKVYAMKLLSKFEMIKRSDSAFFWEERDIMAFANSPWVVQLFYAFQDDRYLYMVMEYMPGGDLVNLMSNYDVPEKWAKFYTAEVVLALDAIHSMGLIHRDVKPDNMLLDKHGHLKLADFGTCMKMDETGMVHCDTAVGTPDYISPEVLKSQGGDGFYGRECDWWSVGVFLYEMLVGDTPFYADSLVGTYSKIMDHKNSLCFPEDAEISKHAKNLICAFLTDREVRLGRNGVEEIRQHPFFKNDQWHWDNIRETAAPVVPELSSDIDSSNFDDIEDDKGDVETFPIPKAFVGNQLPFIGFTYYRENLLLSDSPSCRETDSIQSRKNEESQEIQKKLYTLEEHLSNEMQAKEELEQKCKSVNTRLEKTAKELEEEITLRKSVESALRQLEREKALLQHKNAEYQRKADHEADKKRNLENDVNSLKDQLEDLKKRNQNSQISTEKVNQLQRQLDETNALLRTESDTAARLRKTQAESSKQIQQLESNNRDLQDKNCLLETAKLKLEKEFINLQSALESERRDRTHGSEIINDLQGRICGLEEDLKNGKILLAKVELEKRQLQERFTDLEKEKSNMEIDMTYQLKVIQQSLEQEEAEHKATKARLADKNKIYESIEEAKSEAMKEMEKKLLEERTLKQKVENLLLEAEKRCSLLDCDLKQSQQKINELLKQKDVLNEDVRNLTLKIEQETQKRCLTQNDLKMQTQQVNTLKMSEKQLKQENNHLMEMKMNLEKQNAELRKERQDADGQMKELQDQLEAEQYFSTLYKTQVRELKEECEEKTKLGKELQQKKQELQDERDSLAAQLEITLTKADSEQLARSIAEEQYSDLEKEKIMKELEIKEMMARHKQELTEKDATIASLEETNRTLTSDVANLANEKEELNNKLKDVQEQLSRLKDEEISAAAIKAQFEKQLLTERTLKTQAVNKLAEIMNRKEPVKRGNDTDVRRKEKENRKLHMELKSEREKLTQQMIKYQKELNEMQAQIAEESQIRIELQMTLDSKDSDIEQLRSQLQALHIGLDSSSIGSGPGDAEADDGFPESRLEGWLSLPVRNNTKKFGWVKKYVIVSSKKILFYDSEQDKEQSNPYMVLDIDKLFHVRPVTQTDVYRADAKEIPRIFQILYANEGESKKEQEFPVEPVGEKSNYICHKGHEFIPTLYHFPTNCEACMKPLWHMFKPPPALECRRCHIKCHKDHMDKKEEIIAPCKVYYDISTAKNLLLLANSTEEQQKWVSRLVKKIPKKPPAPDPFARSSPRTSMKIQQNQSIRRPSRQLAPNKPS
InsR, sequence (P06213 28-1382, species assumed): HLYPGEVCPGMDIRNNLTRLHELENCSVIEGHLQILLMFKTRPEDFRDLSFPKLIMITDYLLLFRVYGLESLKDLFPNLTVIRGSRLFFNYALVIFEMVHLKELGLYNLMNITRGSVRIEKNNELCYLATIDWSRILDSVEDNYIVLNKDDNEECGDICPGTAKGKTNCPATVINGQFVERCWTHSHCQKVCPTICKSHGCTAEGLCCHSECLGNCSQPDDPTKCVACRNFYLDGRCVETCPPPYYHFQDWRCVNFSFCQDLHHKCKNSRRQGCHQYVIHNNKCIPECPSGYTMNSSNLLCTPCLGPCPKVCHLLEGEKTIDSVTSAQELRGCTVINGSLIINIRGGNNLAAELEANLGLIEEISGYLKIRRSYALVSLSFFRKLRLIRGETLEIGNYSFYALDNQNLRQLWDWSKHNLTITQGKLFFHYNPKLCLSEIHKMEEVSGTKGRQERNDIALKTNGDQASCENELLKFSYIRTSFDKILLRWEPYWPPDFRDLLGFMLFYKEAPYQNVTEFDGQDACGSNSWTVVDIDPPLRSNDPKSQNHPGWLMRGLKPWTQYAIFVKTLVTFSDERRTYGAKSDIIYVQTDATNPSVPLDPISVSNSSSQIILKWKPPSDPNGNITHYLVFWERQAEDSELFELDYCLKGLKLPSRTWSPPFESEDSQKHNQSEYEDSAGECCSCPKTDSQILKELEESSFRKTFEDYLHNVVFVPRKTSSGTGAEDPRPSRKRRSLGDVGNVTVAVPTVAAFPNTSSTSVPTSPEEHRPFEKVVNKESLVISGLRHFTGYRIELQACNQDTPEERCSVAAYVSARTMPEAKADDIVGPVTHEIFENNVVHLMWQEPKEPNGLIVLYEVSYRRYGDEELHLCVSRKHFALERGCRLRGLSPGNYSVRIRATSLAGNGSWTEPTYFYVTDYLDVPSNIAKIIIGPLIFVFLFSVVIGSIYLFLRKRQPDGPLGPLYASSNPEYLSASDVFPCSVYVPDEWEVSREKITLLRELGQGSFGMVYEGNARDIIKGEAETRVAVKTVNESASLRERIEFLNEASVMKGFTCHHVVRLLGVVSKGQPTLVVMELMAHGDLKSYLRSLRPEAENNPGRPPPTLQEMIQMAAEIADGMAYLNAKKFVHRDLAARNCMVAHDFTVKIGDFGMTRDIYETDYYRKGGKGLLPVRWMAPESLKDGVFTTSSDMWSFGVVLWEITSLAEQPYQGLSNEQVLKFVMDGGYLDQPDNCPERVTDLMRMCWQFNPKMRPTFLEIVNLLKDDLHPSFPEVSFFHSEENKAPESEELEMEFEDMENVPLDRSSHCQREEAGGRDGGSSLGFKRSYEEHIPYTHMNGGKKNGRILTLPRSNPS
Jnk1a1, sequence (P45983 1-384 isoform P45983-2): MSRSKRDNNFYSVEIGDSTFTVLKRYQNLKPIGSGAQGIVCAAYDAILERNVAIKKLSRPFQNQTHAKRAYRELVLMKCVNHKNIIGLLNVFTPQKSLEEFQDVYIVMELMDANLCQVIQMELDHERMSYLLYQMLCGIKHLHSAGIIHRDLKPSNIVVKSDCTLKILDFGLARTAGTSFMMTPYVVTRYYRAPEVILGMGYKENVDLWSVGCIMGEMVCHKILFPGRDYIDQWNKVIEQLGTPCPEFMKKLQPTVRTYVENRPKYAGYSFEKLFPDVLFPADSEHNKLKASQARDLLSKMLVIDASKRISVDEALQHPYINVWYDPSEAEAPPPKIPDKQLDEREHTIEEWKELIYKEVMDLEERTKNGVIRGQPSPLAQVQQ
c-Src, sequence (P12931 whole entry, species assumed): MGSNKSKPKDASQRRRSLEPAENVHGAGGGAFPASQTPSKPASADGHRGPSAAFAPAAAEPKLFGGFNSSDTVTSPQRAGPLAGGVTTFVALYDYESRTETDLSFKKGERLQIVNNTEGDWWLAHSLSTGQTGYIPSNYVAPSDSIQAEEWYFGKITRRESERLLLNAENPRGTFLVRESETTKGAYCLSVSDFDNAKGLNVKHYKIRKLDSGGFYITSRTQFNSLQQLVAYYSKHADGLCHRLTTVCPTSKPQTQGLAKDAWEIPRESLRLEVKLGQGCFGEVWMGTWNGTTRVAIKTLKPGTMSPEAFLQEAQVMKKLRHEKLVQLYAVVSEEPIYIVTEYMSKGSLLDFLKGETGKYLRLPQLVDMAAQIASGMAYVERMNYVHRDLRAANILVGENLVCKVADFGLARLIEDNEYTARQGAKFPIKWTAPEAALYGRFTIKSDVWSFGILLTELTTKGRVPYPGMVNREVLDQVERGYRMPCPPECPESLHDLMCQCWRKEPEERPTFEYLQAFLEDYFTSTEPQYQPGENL
RSK1, sequence (Q15418 whole entry, species assumed): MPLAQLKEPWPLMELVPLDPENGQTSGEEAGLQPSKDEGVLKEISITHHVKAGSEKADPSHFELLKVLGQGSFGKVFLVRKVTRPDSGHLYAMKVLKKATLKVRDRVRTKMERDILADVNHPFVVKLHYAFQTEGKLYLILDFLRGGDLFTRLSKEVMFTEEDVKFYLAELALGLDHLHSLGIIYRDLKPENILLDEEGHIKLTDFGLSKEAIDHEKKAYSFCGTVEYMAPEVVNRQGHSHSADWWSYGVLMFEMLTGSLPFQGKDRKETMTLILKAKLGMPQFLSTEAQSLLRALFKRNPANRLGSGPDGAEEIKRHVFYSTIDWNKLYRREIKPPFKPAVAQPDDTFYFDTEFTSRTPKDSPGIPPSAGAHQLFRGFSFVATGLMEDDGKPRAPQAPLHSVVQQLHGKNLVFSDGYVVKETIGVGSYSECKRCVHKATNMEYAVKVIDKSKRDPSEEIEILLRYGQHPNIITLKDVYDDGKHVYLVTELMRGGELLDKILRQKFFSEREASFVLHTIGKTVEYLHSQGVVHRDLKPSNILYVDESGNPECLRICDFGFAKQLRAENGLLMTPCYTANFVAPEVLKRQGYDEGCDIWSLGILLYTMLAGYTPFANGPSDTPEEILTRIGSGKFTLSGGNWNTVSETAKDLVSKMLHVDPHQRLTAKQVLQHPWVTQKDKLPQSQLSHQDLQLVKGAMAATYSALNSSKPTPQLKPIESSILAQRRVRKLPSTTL

Structure (SMILES) | inhibition at 10 µM (EGFR) [%] | inhibition at 10 µM (AKT1/PKBa) [%] | inhibition at 10 µM (Abl) [%] | inhibition at 10 µM (CDK2/CycA) [%] | inhibition at 10 µM (CK1-alpha) [%] | inhibition at 10 µM (GSK-3beta) [%] | inhibition at 10 µM (IKK-beta) [%] | inhibition at 10 µM (InsR) [%] | inhibition at 10 µM (Jnk1a1) [%] | inhibition at 10 µM (Kit) [%] | inhibition at 10 µM (MAPK-ERK1) [%] | inhibition at 10 µM (PDGFR-beta) [%] | inhibition at 10 µM (ROCK2) [%] | inhibition at 10 µM (RSK1) [%] | inhibition at 10 µM (SRPK1) [%] | inhibition at 10 µM (c-Raf) [%] | inhibition at 10 µM (c-Src) [%] | inhibition at 10 µM (cMet) [%] | inhibition at 10 µM (P56Lck) [%] | inhibition at 10 µM (P70S6K) [%] | also measured
COc1cccc(Nc2nc(C3CC3)nc3sc4c(c23)CCCC4)c1 [Compound 15, (2-Cyclopropyl-5,6,7,8-tetrahydro-benzo[4,5]thieno[2,3-d]pyrimidin-4-yl)-(3-methoxy-phenyl)-amine] | 9 | -9 | 12 | -14 | 5 | -6 | 12 | 23 | -3 | 1 | 6 | -7 | 9 | 8 | 12 | -13 | 5 | -6 | -5 | 4 | melting point: 186.7 °C
FC(F)(F)c1cccc(Nc2nc(C3CC3)nc3sc4c(c23)CCCC4)c1 [Compound 11, (2-Cyclopropyl-5,6,7,8-tetrahydro-benzo[4,5]thieno[2,3-d]pyrimidin-4-yl)-(3-trifluoromethyl-phenyl)-amine] | 4 | 1 | 0 | -5 | -1 | -3 | 4 | -6 | -3 | -1 | 4 | -4 | 6 | -14 | -5 | 2 | 8 | 3 | -7 | 20 | melting point: 204.8 °C
Oc1cccc(Nc2nc(C3CC3)nc3sc4c(c23)CCCC4)c1 [Compound 10, 3-(2-Cyclopropyl-5,6,7,8-tetrahydro-benzo[4,5]thieno[2,3-d]pyrimidin-4-ylamino)-Phenol] | 23 | 0 | -2 | -11 | 4 | -8 | 10 | 2 | -12 | -12 | 9 | -5 | 6 | -12 | 18 | -3 | 3 | 3 | 3 | 6 | melting point: 239.7 °C
Nc1cccc(Nc2ncnc3sc4c(c23)CCCC4)c1 [Compound 4, N-(5,6,7,8-Tetrahydro-benzo[4,5]thieno[2,3-d]pyrimidin-4-yl)-benzene-1,3-diamine] | 98 | 1 | -7 | 16 | 5 | -2 | 12 | -7 | 6 | 2 | 8 | 0 | 7 | 6 | 6 | 14 | 24 | 2 | 9 | 2 | IC50 (EGFR; EGFR-PTK assay): 16.8 nM; melting point: 164.3 °C (dec.)
